Assay results reported in patent US20060014790A1, “Methods of treatment of amyloidosis using spirocyclohexane aspartyl-protease inhibitors” (priority 2004, published 2006).
Values joined by “and” are separate entries in the source; they are usually repeats but may differ in a detail not shown here. Equal values may be shown once.

Molecular target: catD / beta-secretase (BACE)
Test: CatD/BACE selectivity (ratio of IC50 values)
Assay type: biochemical
Details: each value is an average of four experimental runs; multiple values = more than one experiment
Description: Selectivity was calculated as a ratio of inhibition (IC50) values in which the inhibition of beta-secretase was compared to the inhibition of other aspartyl proteases.
In the following examples, each value is an average of four experimental runs and multiple values for one compound indicate that more than one experiment was conducted.

Row | Structure (SMILES) | IC50 catD/IC50 BACE
1 | CONC1CCC(NCC(O)C(Cc2cc(F)cc(F)c2)NC(C)=O)(c2cccc(C(C)(C)C)c2)CC1 (single isomer, unassigned) [196A-20 Diastereomer A, N-(4-(1-(3-tert-butylphenyl)-4-(methoxyamino)cyclohexylamino)-1-(3,5-difluorophenyl)-3-hydroxybutan-2-yl)acetamide] | 5.0
2 | CONC1CCC(NCC(O)C(Cc2cc(F)cc(F)c2)NC(C)=O)(c2cccc(C(C)(C)C)c2)CC1 (single isomer, unassigned) [196A-21 Diastereomer B, N-(4-(1-(3-tert-butylphenyl)-4-(methoxyamino)cyclohexylamino)-1-(3,5-difluorophenyl)-3-hydroxybutan-2-yl)acetamide] | 12.3
3 | CNC1CCC(NCC(O)C(Cc2cc(F)cc(F)c2)NC(C)=O)(c2cccc(C(C)(C)C)c2)CC1 (single isomer, unassigned) [196A-26 Diastereomer A, N-(4-(1-(3-tert-butylphenyl)-4-(methylamino)cyclohexylamino)-1-(3,5-difluorophenyl)-3-hydroxybutan-2-yl)acetamide] | >4.7
4 | CNC1CCC(NCC(O)C(Cc2cc(F)cc(F)c2)NC(C)=O)(c2cccc(C(C)(C)C)c2)CC1 (single isomer, unassigned) [196A-28 Diastereomer B, N-(4-(1-(3-tert-butylphenyl)-4-(methylamino)cyclohexylamino)-1-(3,5-difluorophenyl)-3-hydroxybutan-2-yl)acetamide] | >3.9
5 | CC(=O)NC(Cc1cc(F)cc(F)c1)C(O)CNC1(c2cccc(C(C)(C)C)c2)CCC(N)CC1 (single isomer, unassigned) [196A-29 Diastereomer A, N-(4-(1-(3-tert-butylphenyl)-4-aminocyclohexylamino)-1-(3,5-difluorophenyl)-3-hydroxybutan-2-yl)acetamide] | >8.4
6 | CC(=O)NC(Cc1cc(F)cc(F)c1)C(O)CNC1(c2cccc(C(C)(C)C)c2)CCC(N)CC1 (single isomer, unassigned) [196A-30 Diastereomer B, N-(4-(1-(3-tert-butylphenyl)-4-aminocyclohexylamino)-1-(3,5-difluorophenyl)-3-hydroxybutan-2-yl)acetamide] | >8.4
7 | CC(=O)NC(Cc1cc(F)cc(F)c1)C(O)CNC1(c2cccc(C(C)(C)C)c2)CCC(C(F)(F)F)CC1 (single isomer, unassigned) [196A-32 Diastereomer A, N-(4-(1-(3-tert-butylphenyl)-4-(trifluoromethyl)cyclohexylamino)-1-(3,5-difluorophenyl)-3-hydroxybutan-2-yl)acetamide] | 1.7
8 | CC(=O)NC1CCC(NCC(O)C(Cc2cc(F)cc(F)c2)NC(C)=O)(c2cccc(C(C)(C)C)c2)CC1 (single isomer, unassigned) [196A-33 Diastereomer A, N-[3-[4-Acetylamino-1-(3-tert-butyl-phenyl)-cyclohexylamino]-1-(3,5-difluoro-benzyl)-2-hydroxy-propyl]-acetamide] | 34.4
9 | CC(=O)NC(Cc1cc(F)cc(F)c1)C(O)CNC1(c2cccc(C(C)(C)C)c2)CCC(O)(CO)CC1 (single isomer, unassigned) [196A-35 Diastereomer A, N-[3-[1-(3-tert-Butyl-phenyl)-4-hydroxy-4-hydroxymethyl-cyclohexylamino]-1-(3,5-difluoro-benzyl)-2-hydroxy-propyl]-acetamide] | >7.4
10 | CC(=O)NC(Cc1cc(F)cc(F)c1)C(O)CNC1(c2cccc(C(C)(C)C)c2)CCC(O)(CO)CC1 (single isomer, unassigned) [196A-36 Diastereomer B, N-[3-[1-(3-tert-Butyl-phenyl)-4-hydroxy-4-hydroxymethyl-cyclohexylamino]-1-(3,5-difluoro-benzyl)-2-hydroxy-propyl]-acetamide] | >5.3
11 | COC(=O)NC1CCC(NCC(O)C(Cc2cc(F)cc(F)c2)NC(C)=O)(c2cccc(C(C)(C)C)c2)CC1 (single isomer, unassigned) [196A-37 Diastereomer A, methyl 4-(3-acetamido-4-(3,5-difluorophenyl)-2-hydroxybutylamino)-4-(3-tert-butylphenyl)cyclohexylcarbamate] | 7.7
12 | COC(=O)NC1CCC(NCC(O)C(Cc2cc(F)cc(F)c2)NC(C)=O)(c2cccc(C(C)(C)C)c2)CC1 (single isomer, unassigned) [196A-38 Diastereomer B, methyl 4-(3-acetamido-4-(3,5-difluorophenyl)-2-hydroxybutylamino)-4-(3-tert-butylphenyl)cyclohexylcarbamate] | 2.6 and 2.0 and 2.3
13 | CC(=O)NC(Cc1cc(F)cc(F)c1)C(O)CNC1(c2cccc(C(C)(C)C)c2)CCC(N(O)C(C)=O)CC1 (single isomer, unassigned) [196A-39 Diastereomer A] | 9.6
14 | CC(=O)NC(Cc1cc(F)cc(F)c1)C(O)CNC1(c2cccc(C(C)(C)C)c2)CCC(NS(C)(=O)=O)CC1 (single isomer, unassigned) [196A-41 Diastereomer A, N-(4-(1-(3-tert-butylphenyl)-4-(methylsulfonamido)cyclohexylamino)-1-(3,5-difluorophenyl)-3-hydroxybutan-2-yl)acetamide] | 18.1
15 | CC(=O)NC(Cc1cc(F)cc(F)c1)C(O)CNC1(c2cccc(C(C)(C)C)c2)CCC(NS(C)(=O)=O)CC1 (single isomer, unassigned) [196A-42 Diastereomer B, N-(4-(1-(3-tert-butylphenyl)-4-(methylsulfonamido)cyclohexylamino)-1-(3,5-difluorophenyl)-3-hydroxybutan-2-yl)acetamide] | >3.0
16 | CC(=O)NC(Cc1cc(F)cc(F)c1)C(O)CNC1(c2cccc(C(C)(C)C)c2)CCC(NC=O)CC1 (single isomer, unassigned) [196A-43 Diastereomer A, N-(4-(1-(3-tert-butylphenyl)-4-formamidocyclohexylamino)-1-(3,5-difluorophenyl)-3-hydroxybutan-2-yl)acetamide] | 84.5
17 | CNC(=O)NC1CCC(NCC(O)C(Cc2cc(F)cc(F)c2)NC(C)=O)(c2cccc(C(C)(C)C)c2)CC1 (single isomer, unassigned) [196A-45 Diastereomer A, 1-(4-(3-acetamido-4-(3,5-difluorophenyl)-2-hydroxybutylamino)-4-(3-tert-butylphenyl)cyolohexyl)-3-methylurea] | >3.5
18 | CNC(=O)NC1CCC(NCC(O)C(Cc2cc(F)cc(F)c2)NC(C)=O)(c2cccc(C(C)(C)C)c2)CC1 (single isomer, unassigned) [196A-46 Diastereomer B, 1-(4-(3-acetamido-4-(3,5-difluorophenyl)-2-hydroxybutylamino)-4-(3-tert-butylphenyl)cyclohexyl)-3-methylurea] | >1.3
19 | CC(=O)NC(Cc1cc(F)cc(F)c1)C(O)CNC1(c2cccc(C(C)(C)C)c2)CCC([S+](C)[O-])CC1 (stereo not shown) [196A-34 Mix, N-(4-(1-(3-tert-butylphenyl)-4-(methylsulfinyl)cyclohexylamino)-1-(3,5-difluorophenyl)-3-hydroxybutan-2yl)acetamide] | 2.1
20 | CCc1cccc(C2(NCC(O)C(Cc3cc(F)cc(F)c3)NC(C)=O)CCOCC2)c1 (stereo not shown) [Example 196A-1, N-{1-(3,5-Difluoro-benzyl)-3-[4-(3-ethyl-phenyl)-tetrahydro-pyran-4-ylamino]-2-hydroxy-propyl}-acetamide] | 3.0 and 2.3 and 2.7
21 | CC(=O)NC(Cc1ccc(O)cc1)C(O)CNC1(c2cccc(C(C)C)c2)CCCCC1 (stereo not shown) [Example 196A-2, N-{2-Hydroxy-1-(4-hydroxy-benzyl)-3-[1-(3-isopropyl-phenyl)-cyclohexylamino]-propyl}-acetamide] | 3.6 and 4.1 and 3.9
22 | CC(=O)NC(Cc1cccc(F)c1)C(O)CNC1(c2cccc(C(C)C)c2)CCCCC1 (stereo not shown) [Example 196A-4, N-{1-(3-Fluoro-benzyl)-2-hydroxy-3-[1-(3-isopropyl-phenyl)-cyclohexylamino]-propyl}-acetamide] | 1.1
23 | CC(=O)NC(Cc1cc(F)cc(F)c1)C(O)CNC1(c2cccc(C(C)C)c2)CCC2(CC1)OCCO2 (stereo not shown) [Example 196A-6, N-{1-(3,5-Difluoro-benzyl)-2-hydroxy-3-[8-(3-isopropyl-phenyl)-1,4-dioxa-spiro[4.5]dec-8-ylamino]-propyl}-acetamide] | 11.4
24 | CC(=O)NC(Cc1cc(F)cc(F)c1)C(O)CNC1(c2cccc(C(C)C)c2)CCS(=O)(=O)CC1 (stereo not shown) [Example 196A-9, N-{1-(3,5-Difluoro-benzyl)-2-hydroxy-3-[4-(3-isopropyl-phenyl)-1,1-dioxo-hexahydro-1l6-thiopyran-4-ylamino]-propyl}-acetamide] | 1.4
25 | CC(=O)NC(Cc1cc(F)cc(F)c1)C(O)CNC1(c2cccc(C(C)C)c2)CCN(C(C)=O)CC1 (stereo not shown) [Example 196A-10, N-[3-[1-Acetyl-4-(3-isopropyl-phenyl)-piperidin-4-ylamino]-1-(3,5-difluoro-benzyl)-2-hydroxy-propyl]-acetamide] | 3.2
26 | CC(=O)NC(Cc1cc(F)cc(F)c1)C(O)CNC1(c2cccc(C(C)C)c2)CCN(S(C)(=O)=O)CC1 (stereo not shown) [Example 196A-11, N-{1-(3,5-Difluoro-benzyl)-2-hydroxy-3-[4-(3-isopropyl-phenyl)-1-methanesulfonyl-piperidin-4-ylamino]-propyl}-acetamide] | 12.7
27 | CC(=O)NC(Cc1cc(F)cc(F)c1)C(O)CNC1(c2cccc(C(C)C)c2)CCN(C(=O)C(F)(F)F)CC1 (stereo not shown) [Example 196A-12, N-{1-(3,5-Difluoro-benzyl)-2-hydroxy-3-[4-(3-isopropyl-phenyl)-1-(2,2,2-trifluoro-acetyl)-piperidin-4-ylamino]-propyl}-acetamide] | 1.1
28 | CC(=O)NC(Cc1cc(F)cc(F)c1)C(O)CNC1(c2cccc(C(C)C)c2)CCN(C=O)CC1 (stereo not shown) [Example 196A-13, N-{1-(3,5-Difluoro-benzyl)-3-[1-formyl-4-(3-isopropyl-phenyl)-piperidin-4-ylamino]-2-hydroxy-propyl}-acetamide] | 33.5
